This note sets out measurements from US7566712B2, “Biaryl piperazinyl-pyridine analogues” (Neurogen Corporation, priority 2003, dated 2009).

A value given as a limit tells only on which side of the number the result lay.

This assay has as its target T1, human capsaicin receptor (Homo sapiens, UniProt Q8NER1).
T1 construct: pBK-CMV expression construct encoding the full length human capsaicin receptor; expressed in transfected cells
Put plainly: Calcium mobilization assay, determination of antagonist activity (Example 6). In kind it is cell-based. To be noted: determined as described in Example 6 (calcium mobilization, antagonist activity); Table II. Put shortly:
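HEK293 clonal lines stably expressing full-length human capsaicin receptor, loaded with Fluo-3 AM in KRH buffer pH 7.4, 1–2 h at 37 °C. Compounds (1–5 μM final) preincubated 0.5–6 h at room temperature, then capsaicin at its EC50 added. FLIPR/Fluoroskan calcium signal; IC50 as 50% decrease of capsaicin response.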
On the technique in general: A change in cytosolic calcium serves as a functional read-out for many receptors and channels.

T1 sequence (Q8NER1 whole entry): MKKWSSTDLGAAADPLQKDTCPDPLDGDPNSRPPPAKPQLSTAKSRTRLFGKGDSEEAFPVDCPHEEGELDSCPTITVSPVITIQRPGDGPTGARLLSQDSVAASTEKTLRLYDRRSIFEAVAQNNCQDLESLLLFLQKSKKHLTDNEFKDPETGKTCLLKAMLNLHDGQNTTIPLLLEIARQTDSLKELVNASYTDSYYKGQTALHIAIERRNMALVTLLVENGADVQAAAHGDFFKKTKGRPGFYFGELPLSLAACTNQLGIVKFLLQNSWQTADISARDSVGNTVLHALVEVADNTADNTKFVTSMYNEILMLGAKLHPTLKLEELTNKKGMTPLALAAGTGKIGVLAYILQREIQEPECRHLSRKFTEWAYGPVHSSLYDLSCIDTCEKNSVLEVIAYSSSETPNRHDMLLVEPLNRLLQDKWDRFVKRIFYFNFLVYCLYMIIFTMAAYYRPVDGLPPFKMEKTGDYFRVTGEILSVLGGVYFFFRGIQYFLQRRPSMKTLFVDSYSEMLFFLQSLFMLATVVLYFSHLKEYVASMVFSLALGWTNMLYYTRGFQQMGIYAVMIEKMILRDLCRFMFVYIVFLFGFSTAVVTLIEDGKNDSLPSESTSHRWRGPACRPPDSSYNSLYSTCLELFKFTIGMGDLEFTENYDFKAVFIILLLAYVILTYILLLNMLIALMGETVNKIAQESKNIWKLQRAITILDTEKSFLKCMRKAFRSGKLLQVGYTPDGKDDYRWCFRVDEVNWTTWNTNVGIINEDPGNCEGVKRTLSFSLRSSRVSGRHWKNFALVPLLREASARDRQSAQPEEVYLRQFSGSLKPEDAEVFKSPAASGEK

What is called IC50 is the point on the concentration scale where inhibition reaches its midpoint. With `Cc1cc(-c2cc(N3CCN(c4ncccc4C)CC3)nc(N3CCCC3C)n2)ccc1F` (stereo not shown) [Example 696, 4-(4-fluoro-3-methylphenyl)-6-[4-(3-methylpyridin-2-yl)piperazin-1-yl]-2-(2-methylpyrrolidin-1-yl)pyrimidine], the IC50 is not above 1000 nM. With `Cc1cc(-c2cc(N3CCN(c4ncccc4Cl)CC3)nc(N3CCCC3)n2)ccc1F` [Example 697, 4-[4-(3-chloropyridin-2-yl)piperazin-1-yl]-6-(4-fluoro-3-methylphenyl)-2-pyrrolidin-1-ylpyrimidine], the IC50 was not above 1000 nM. Take `Cc1cc(-c2cc(N3CCN(c4ncccc4Cl)CC3)nc(N3CCCC3C)n2)ccc1F` (stereo not shown) [Example 698, 4-[4-(3-chloropyridin-2-yl)piperazin-1-yl]-6-(4-fluoro-3-methylphenyl)-2-(2-methylpyrrolidin-1-yl)pyrimidine]: the IC50 is not above 1000 nM. The value for `CC1(C)CCCN1c1nc(-c2ccc(F)c(Cl)c2)cc(N2CCN(c3ncccc3C(F)(F)F)CC2)n1` [Example 699, 4-(3-chloro-4-fluorophenyl)-2-(2,2-dimethylpyrrolidin-1-yl)-6-{4-[3-(trifluoromethyl)pyridin-2-yl]piperazin-1-yl}pyrimidine] was not above 1000 nM; that for `Fc1ccc(-c2cc(N3CCN(c4ncccc4Cl)CC3)nc(SCc3ccccc3)n2)cc1Cl` [Example 700, 2-(benzylthio)-4-(3-chloro-4-fluorophenyl)-6-[4-(3-chloropyridin-2-yl)piperazin-1-yl]pyrimidine] was not above 1000 nM; that for `O=S(=O)(Cc1ccccc1)c1nc(-c2ccc(F)c(Cl)c2)cc(N2CCN(c3ncccc3Cl)CC2)n1` [Example 701, 2-(benzylsulfonyl)-4-(3-chloro-4-fluorophenyl)-6-[4-(3-chloropyridin-2-yl)piperazin-1-yl]pyrimidine] was not above 1000 nM.

As for `Cc1cccnc1N1CCN(c2cc(-c3ccc(F)cc3)nc(N3CCCC3C)n2)CC1` (stereo not shown) [Example 702, 4-(4-fluorophenyl)-6-[4-(3-methylpyridin-2-yl)piperazin-1-yl]-2-(2-methylpyrrolidin-1-yl)pyrimidine], the IC50 is not above 1000 nM. The result for `Cc1cccnc1N1CCN(c2cc(-c3ccc(F)c(F)c3)nc(N3CCCC3C)n2)CC1` (stereo not shown) [Example 703, 4-(3,4-difluorophenyl)-6-[4-(3-methylpyridin-2-yl)piperazin-1-yl]-2-(2-methylpyrrolidin-1-yl)pyrimidine] reads not above 1000 nM. With `CC1CCCN1c1nc(-c2ccc(F)c(F)c2)cc(N2CCN(c3ncccc3C(F)(F)F)CC2)n1` (stereo not shown) [Example 704, 4-(3,4-difluorophenyl)-2-(2-methylpyrrolidin-1-yl)-6-{4-[3-(trifluoromethyl)pyridin-2-yl]piperazin-1-yl}pyrimidine], the IC50 is not above 1000 nM. Regarding `CC1CCCN1c1nc(-c2ccc(F)cc2)cc(N2CCN(c3ncccc3C(F)(F)F)CC2)n1` (stereo not shown) [Example 705, 4-(4-fluorophenyl)-2-(2-methylpyrrolidin-1-yl)-6-{4-[3-(trifluoromethyl)pyridin-2-yl]piperazin-1-yl}pyrimidine], the IC50 was not above 1000 nM.

As to `Cc1cccc(-c2cc(N3CCN(c4ncccc4C(F)(F)F)CC3)nc(N3CCCC3C)n2)c1` (stereo not shown) [Example 706, 4-(3-methylphenyl)-2-(2-methylpyrrolidin-1-yl)-6-{4-[3-(trifluoromethyl)pyridin-2-yl]piperazin-1-yl}pyrimidine], the IC50 is not above 1000 nM. For the molecule `CC1CCCN1c1nc(-c2ccc(F)c(Cl)c2)cc(N2CCN(c3ncccc3F)CC2)n1` (stereo not shown) [Example 707, 4-(3-chloro-4-fluorophenyl)-6-(4-(3-fluoropyridin-2-yl)piperazin-1-yl]-2-(2-methylpyrrolidin-1-yl)pyrimidine], the IC50 was not above 1000 nM. Consider `Cc1cc(-c2cc(N3CCN(c4ncccc4F)CC3)nc(N3CCCC3C)n2)ccc1F` (stereo not shown) [Example 708, 4-(4-fluoro-3-methylphenyl)-6-[4-(3-fluoropyridin-2-yl)piperazin-1-yl]-2-(2-methylpyrrolidin-1-yl)pyrimidine], for which the IC50 was not above 1000 nM.
